One assay has as its target mTOR (Homo sapiens (Human), UniProt P42345). Description: mTOR enzymatic assay. It counts as biochemical. The settings on record: read-out: In vitro enzymatic activity (IC50) mTOR. The method, then:
Assay 1-2: In Vitro Enzymatic Inhibitory Activity of the Present Compound
1. Preparation of Agents:
• 1.1 1-fold kinase buffer: 50 mM HEPES, pH 7.5, 10 mM MgCl2, 1 mM EGTA, 3 mM MnCl2, 0.01% Tween-20, 2 mM DTT; • 1.2 4-fold kinase solution: mTOR kinase was added to 1-fold kinase buffer to form 4-fold kinase solution with a final concentration of 2.5 nM; • 1.3 2-fold substrate and ATP solution: the substrate 4EBP1 and ATP were added to 1-fold kinase buffer to form 2-fold substrate solution with final concentration of 50 nM of 4EBP1 and 10.8 μM of ATP; • 1.4 4-fold test substance solutions: 100-fold test substance solutions in different gradient concentrations were formulated with 100% DMSO, and diluted by 25 folds with 1-fold kinase buffer to form 4-fold test substance solutions in different gradient concentrations. • 1.5 Preparation of detection solution: a detection solution containing 2-fold final concentrations of EDTA and 4EBP1 phosphorylated antibody was formulated, wherein the final concentration for EDTA was 8 mM, and the final concentration for the 4EBP phosphorylated antibody was 2 nM. 2. Procedure • 2.1 To each well of a 384-well plate was added 2.5 μL of the 4-fold test substance solutions in gradient concentrations. The replication was made. • 2.2 To each well was added 2.5 μL of 4-fold kinase solution, and then the plate was incubated for 10 mins; • 2.3 Then to each well was added 5 μL/of 2-fold substrate and ATP solution, and then the plate was incubated at room temperature for 1 hour; • 2.4 Finally, 10 μL of the detection solution was added to terminate the reaction. After 60 mins, the data Lance signal ([…]) was read from Envision. 3 Data treatment Inhibition rate (%)=[…] • wherein: • maximum refers to the reading at the DMSO control well. • minimum refers to the reading at the control well without kinase, • The data was input into Graphpad Prism 5.0 to plot and obtain the curve and IC50 value. PI3Kα Enzymatic Assay 1. […] After 15 mins, the data Lance signal ([…]) was read from Envision. 3 Data treatment Inhibition rate (%)=100−(sample value−minimum)/(maximum−minimum)×100 • wherein: • maximum refers to the reading at the control well without kinase, • minimum refers to the reading at the DMSO control well, • The data was input into Graphpad Prism 5.0 to plot and obtain the curve and IC50 value. […]

Another assay deals with Histamine H2 (Homo sapiens (Human), UniProt P25021). The assay is described as follows: Radioligand binding assay No. 239710. The conditions noted are these: test substance 10 μM, read-out: Inhibitory rate (%), Histamine H2.
Assay [1] has as its target Nicotinic Acetylcholine α1, Bungarotoxin (Homo sapiens (Human), UniProt P02708+P07510+Q07001). The assay is described as follows: Radioligand binding assay No. 258700. The settings on record: read-out: Inhibitory rate (%), Nicotinic Acetylcholine α1, Bungarotoxin.
Assay [2] addresses Serotonin (5-Hydroxytryptamine) 5-HT2B (Homo sapiens (Human), UniProt P41595). The assay is described as follows: Radioligand binding assay No. 271700. The conditions noted are these: test substance 10 μM, read-out: Inhibitory rate (%), Serotonin (5-Hydroxytryptamine) 5-HT2B.
Assay [3] has as its target Leukotriene, Cysteinyl CysLT1 (Homo sapiens (Human), UniProt Q9Y271). Description: Radioligand binding assay No. 250460. The conditions noted are these: test substance 10 μM, read-out: Inhibitory rate (%), Leukotriene, Cysteinyl CysLT1.
Another assay addresses Muscarinic M2 (Homo sapiens (Human), UniProt P08172). The assay is described as follows: Radioligand binding assay No. 252710. The settings on record: test substance 10 μM, read-out: Inhibitory rate (%), Muscarinic M2.
The test system of a further assay is Nicotinic Acetylcholine. Description: Radioligand binding assay No. 258590. The settings on record: test substance 10 μM; Human.
For a further assay, the target named is Adrenergic α2A (Homo sapiens (Human), UniProt P08913). The assay is described as follows: Radioligand binding assay No. 203620. The settings on record: test substance 10 μM, read-out: Inhibitory rate (%), Adrenergic α2A.
The target in the next assay is Adrenergic α1D (Homo sapiens (Human), UniProt P25100). The assay is described as follows: Radioligand binding assay No. 203400. The settings on record: test substance 10 μM, read-out: Inhibitory rate (%), Adrenergic α1D.
In a further assay the test system is Phorbol Ester. The assay is described as follows: Radioligand binding assay No. 264500. The conditions noted are these: test substance 10 μM; mouse.
For the next assay, the target named is Tachykinin NK1 (Homo sapiens (Human), UniProt P25103). The assay is described as follows: Radioligand binding assay No. 255520. The conditions noted are these: test substance 10 μM, read-out: Inhibitory rate (%), Tachykinin NK1.
For a further assay, the system named is Glutamate, NMDA, Agonism. The assay is described as follows: Radioligand binding assay No. 232810. The settings on record: test substance 10 μM; rat.
For a further assay, the target named is Dopamine D2S (Homo sapiens (Human), UniProt P14416). Description: Radioligand binding assay No. 219700. The conditions noted are these: test substance 10 μM, read-out: Inhibitory rate (%), Dopamine D2S.
Sequence of Dopamine D2S (P14416 other isoform, or with tags, fused parts or gaps): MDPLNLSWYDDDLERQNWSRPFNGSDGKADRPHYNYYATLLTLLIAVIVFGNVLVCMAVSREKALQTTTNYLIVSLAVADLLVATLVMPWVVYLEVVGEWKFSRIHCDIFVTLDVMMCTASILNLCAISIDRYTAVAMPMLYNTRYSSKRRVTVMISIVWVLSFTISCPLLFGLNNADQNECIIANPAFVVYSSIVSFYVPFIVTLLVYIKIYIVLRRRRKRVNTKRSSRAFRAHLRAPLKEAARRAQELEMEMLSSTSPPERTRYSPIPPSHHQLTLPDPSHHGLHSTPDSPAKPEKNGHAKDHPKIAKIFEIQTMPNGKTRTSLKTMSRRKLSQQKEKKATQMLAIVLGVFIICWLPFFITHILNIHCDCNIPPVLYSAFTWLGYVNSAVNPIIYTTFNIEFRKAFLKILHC

Sequence of Muscarinic M2 (P08172 whole entry): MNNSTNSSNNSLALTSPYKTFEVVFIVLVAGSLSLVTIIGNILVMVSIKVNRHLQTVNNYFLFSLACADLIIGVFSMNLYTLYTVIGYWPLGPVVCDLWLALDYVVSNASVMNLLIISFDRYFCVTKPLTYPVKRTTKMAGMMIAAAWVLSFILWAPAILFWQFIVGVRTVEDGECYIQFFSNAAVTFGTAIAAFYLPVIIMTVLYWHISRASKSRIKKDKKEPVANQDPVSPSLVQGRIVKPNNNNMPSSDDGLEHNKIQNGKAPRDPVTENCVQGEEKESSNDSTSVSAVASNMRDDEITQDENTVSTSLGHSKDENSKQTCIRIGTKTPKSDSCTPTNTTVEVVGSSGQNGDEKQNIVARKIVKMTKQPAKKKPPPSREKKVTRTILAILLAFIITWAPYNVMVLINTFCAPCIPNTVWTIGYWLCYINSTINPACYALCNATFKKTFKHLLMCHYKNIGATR
Sequence of Tachykinin NK1 (P25103 whole entry): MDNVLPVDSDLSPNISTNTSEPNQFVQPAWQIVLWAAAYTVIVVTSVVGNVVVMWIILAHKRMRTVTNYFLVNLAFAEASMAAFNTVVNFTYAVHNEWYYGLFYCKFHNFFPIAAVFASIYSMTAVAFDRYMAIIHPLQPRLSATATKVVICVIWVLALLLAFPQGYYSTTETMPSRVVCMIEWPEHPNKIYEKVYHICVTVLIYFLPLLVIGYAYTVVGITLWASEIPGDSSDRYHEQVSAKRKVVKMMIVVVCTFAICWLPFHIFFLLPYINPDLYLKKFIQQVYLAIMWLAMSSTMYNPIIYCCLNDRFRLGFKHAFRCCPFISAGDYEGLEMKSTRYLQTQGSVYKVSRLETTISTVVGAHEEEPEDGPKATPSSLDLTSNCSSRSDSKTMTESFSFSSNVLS
Sequence of Adrenergic α2A (P08913 whole entry): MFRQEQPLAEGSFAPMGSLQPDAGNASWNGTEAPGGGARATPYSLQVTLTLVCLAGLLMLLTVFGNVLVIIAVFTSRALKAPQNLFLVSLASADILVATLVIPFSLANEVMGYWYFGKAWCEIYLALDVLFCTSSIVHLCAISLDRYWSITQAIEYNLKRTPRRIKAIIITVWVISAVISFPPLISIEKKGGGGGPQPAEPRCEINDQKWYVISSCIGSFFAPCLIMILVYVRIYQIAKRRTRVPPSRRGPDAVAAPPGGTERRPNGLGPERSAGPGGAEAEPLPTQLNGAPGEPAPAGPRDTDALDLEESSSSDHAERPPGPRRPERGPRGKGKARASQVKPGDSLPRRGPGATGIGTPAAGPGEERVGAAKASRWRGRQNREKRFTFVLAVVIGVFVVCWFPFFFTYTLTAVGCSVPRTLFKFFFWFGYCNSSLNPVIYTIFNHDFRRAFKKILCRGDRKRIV
Sequence of Serotonin (5-Hydroxytryptamine) 5-HT2B (P41595 whole entry): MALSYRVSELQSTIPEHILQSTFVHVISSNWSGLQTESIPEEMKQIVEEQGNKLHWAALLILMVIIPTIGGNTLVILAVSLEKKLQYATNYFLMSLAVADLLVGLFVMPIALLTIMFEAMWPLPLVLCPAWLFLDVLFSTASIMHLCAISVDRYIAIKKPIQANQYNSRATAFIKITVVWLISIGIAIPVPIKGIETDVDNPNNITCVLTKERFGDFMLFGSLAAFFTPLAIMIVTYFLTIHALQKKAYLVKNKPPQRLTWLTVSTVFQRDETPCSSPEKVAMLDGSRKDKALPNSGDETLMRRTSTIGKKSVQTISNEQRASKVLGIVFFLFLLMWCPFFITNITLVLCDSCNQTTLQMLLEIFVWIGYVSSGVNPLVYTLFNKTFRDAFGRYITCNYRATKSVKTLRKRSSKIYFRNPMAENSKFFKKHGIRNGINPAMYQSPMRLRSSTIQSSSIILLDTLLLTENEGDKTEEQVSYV
Sequence of Histamine H2 (P25021 whole entry): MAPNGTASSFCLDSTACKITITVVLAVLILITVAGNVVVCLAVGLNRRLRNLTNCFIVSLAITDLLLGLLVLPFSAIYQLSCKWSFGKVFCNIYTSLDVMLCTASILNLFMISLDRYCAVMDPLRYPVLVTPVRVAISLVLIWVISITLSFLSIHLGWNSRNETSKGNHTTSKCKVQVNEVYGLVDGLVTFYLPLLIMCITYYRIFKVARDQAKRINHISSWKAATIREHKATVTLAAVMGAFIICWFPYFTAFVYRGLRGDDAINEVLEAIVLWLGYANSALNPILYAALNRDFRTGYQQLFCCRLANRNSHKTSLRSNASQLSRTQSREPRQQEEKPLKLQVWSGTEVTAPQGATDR
Sequence of Leukotriene, Cysteinyl CysLT1 (Q9Y271 whole entry): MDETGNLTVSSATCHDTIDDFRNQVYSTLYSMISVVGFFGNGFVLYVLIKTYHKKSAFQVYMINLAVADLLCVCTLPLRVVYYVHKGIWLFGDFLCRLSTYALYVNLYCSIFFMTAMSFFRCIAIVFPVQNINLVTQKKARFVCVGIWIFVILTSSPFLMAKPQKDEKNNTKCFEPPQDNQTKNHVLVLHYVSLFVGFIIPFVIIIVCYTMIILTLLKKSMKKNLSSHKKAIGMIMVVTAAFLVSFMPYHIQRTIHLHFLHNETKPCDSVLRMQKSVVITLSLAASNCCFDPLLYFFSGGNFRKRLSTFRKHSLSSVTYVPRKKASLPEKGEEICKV
Sequence of Adrenergic α1D (P25100 whole entry): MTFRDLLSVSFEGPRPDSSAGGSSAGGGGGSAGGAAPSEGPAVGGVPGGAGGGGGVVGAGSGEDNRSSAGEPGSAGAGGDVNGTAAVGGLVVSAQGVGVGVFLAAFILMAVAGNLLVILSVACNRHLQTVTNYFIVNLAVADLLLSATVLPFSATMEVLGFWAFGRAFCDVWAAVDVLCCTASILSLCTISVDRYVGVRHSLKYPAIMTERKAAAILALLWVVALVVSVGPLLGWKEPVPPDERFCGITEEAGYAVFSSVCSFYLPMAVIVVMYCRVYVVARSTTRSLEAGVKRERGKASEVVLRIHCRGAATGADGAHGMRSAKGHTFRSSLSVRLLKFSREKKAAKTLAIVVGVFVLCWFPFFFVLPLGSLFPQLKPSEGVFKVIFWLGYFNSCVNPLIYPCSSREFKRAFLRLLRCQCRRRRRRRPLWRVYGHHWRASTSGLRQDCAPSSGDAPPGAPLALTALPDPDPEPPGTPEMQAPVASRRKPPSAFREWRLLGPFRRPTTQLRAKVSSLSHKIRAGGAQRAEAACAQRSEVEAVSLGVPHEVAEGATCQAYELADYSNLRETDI

In general, IC50 refers to the midpoint of a concentration-inhibition curve. As for `O=c1[nH]c(=O)n(-c2cccc(C(F)(F)F)c2)c2c1cnc1ccc(-c3cnc4[nH]ccc4c3)nc12` [Compound 30, 9-(1H-pyrrolo[2,3-b]pyridin-5-yl)-1-(3-(trifluoromethyl)phenyl)pyrimido[5,4-c][1,5]naphthyridine-2,4(1H,3H)-dione], the half-inhibitory concentration (IC50) on mTOR is 1.12 nM.
For `Nc1ccc(-c2ccc3ncc4c(=O)[nH]c(=O)n(-c5cccc(C(F)(F)F)c5)c4c3n2)cn1` [Compound 5, 9-(6-aminopyridin-3-yl)-1-(3-(trifluoromethyl)phenyl)pyrimido[5,4-c][1,5]naphthyridine-2,4(1H,3H)-dione], the inhibition at 10 µM at Histamine H2 is -2%; in [1], 4%; in assay [2] it was 13%; in assay [3], -1%; at Muscarinic M2 it was -4%; on Adrenergic α2A, 19%. Moreover, the inhibition at 10 µM on Adrenergic α1D came to 9%; at Tachykinin NK1, 20%; at Dopamine D2S, 14%. Moreover, the “Inhibitory rate (%), Nicotinic Acetylcholine” value with Nicotinic Acetylcholine turned out to be 7%. In addition, the “Inhibitory rate (%), Phorbol Ester” value in the assay with Phorbol Ester was 27%. Further, in the assay on Glutamate, NMDA, Agonism, the “Inhibitory rate (%), Glutamate, NMDA, Agonism” value was found to be 29%.

The values above are taken from US9365572B2, “PI3K and/or mTOR inhibitor” (XUANZHU PHARMA CO., LTD., priority 2012, dated 2016).
